How the values were obtained:
Assay in all cases: relative viability (nuclei count vs DMSO), 5 days (fraction); higher = more cells survive
Fedratinib + Phenformin = compound: Cc1cnc(Nc2ccc(OCCN3CCCC3)cc2)nc1Nc1cccc(S(=O)(=O)NC(C)(C)C)c1 [Fedratinib] + N=C(N)NC(=N)NCCc1ccccc1 [Phenformin] (partner 250 µM)
In short: (§1)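 For relative viability, nuclei counts in treated wells were divided by those in vehicle wells. Lung cancer cell lines had been pin-tool dosed in 1536-well plates the day after seeding and cultured for 5 days, then fixed and stained in one step (final 0.05% Triton X-100, 1% formaldehyde, 1 ug/ml Hoechst) and imaged at 4×. Doses were one drug alone or a fixed anchor-drug dose plus five library-drug doses (not always all listed) in √10 steps, and values are duplicate-plate medians.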

GW-2580 + Crizotinib = compound: COC1=CC=C(C=C1)COC2=C(C=C(C=C2)CC3=CN=C(N=C3N)N)OC [GW-2580] + C[C@@H](Oc1cc(-c2cnn(C3CCNCC3)c2)cnc1N)c1c(Cl)ccc(F)c1Cl [Crizotinib] (partner 1 µM)
In short: as §1

GW-2580 + Dasatinib = compound: COC1=CC=C(C=C1)COC2=C(C=C(C=C2)CC3=CN=C(N=C3N)N)OC [GW-2580] + Cc1nc(Nc2ncc(C(=O)Nc3c(C)cccc3Cl)s2)cc(N2CCN(CCO)CC2)n1 [Dasatinib] (partner 0.075 µM)
In short: as §1

Fedratinib + Bortezomib = compound: Cc1cnc(Nc2ccc(OCCN3CCCC3)cc2)nc1Nc1cccc(S(=O)(=O)NC(C)(C)C)c1 [Fedratinib] + CC(C)C[C@H](NC(=O)[C@H](Cc1ccccc1)NC(=O)c1cnccn1)B(O)O [Bortezomib] (partner 0.002 µM)
In short: as §1

GW-2580 + Tozasertib = compound: COC1=CC=C(C=C1)COC2=C(C=C(C=C2)CC3=CN=C(N=C3N)N)OC [GW-2580] + Cc1cc(Nc2cc(N3CCN(C)CC3)nc(Sc3ccc(NC(=O)C4CC4)cc3)n2)n[nH]1 [Tozasertib] (partner 0.1 µM)
In short: as §1

UMC-11
relative viability (Fedratinib + Phenformin; first compound 0.1 µM): 0.338 | relative viability (Fedratinib + Phenformin; first compound 0.3162 µM): 0.272 | relative viability (Fedratinib + Phenformin; first compound 1 µM): 0.359 | relative viability (GW-2580 + Crizotinib; first compound 0.08 µM): 0.599 | relative viability (GW-2580 + Crizotinib; first compound 0.8 µM): 0.614 | relative viability (GW-2580 + Crizotinib; first compound 2.53 µM): 0.585 | relative viability (GW-2580 + Crizotinib; first compound 8 µM): 0.601 | relative viability (GW-2580 + Dasatinib; first compound 0.08 µM): 0.572 | relative viability (GW-2580 + Dasatinib; first compound 0.8 µM): 0.508 | relative viability (GW-2580 + Dasatinib; first compound 2.53 µM): 0.441 | relative viability (GW-2580 + Dasatinib; first compound 8 µM): 0.62 | relative viability (Fedratinib + Bortezomib; first compound 0.1 µM): 0.603 | relative viability (Fedratinib + Bortezomib; first compound 0.3162 µM): 0.758 | relative viability (Fedratinib + Bortezomib; first compound 1 µM): 0.396 | relative viability (GW-2580 + Tozasertib; first compound 0.08 µM): 0.206 | relative viability (GW-2580 + Tozasertib; first compound 0.8 µM): 0.284 | relative viability (GW-2580 + Tozasertib; first compound 2.53 µM): 0.198 | relative viability (GW-2580 + Tozasertib; first compound 8 µM): 0.197

From the supplement of paper PMC10307832
